Data as given in patent publication US20230263822A1, “MODULATION OF FACTOR 11 EXPRESSION” (Ionis Pharmaceuticals, Inc., priority 2008, published 2023).
Strand notation (5' to 3'): a small letter for the sugar, then the base; units joined by * are phosphorothioate-linked, units joined directly phosphodiester-linked; [ ] holds rarer units or linkages, { } end groups; capitals alone tell only the bases. e = 2'-O-(2-methoxyethyl) (MOE); [5mC] = 5-methylcytosine; d = 2'-deoxy (DNA)

Test system: human Factor 11 mRNA
Assay: Antisense inhibition of human Factor 11 in HepG2 cells by microwalk gapmers, lipofectin, 75 nM (Example 3)
Type: cell-based
Conditions: HepG2, lipofectin, ~24 h, gapmers targeted to nucleobases 656 to 704 of SEQ ID NO: 1
Procedure: These gapmers were designed by creating gapmers shifted slightly upstream and downstream (i.e. “microwalk”) of the original gapmers from Table 3. Gapmers were also created with various motifs, e.g. 5-10-5 MOE, 3-14-3 MOE, and 2-13-5 MOE. These gapmers were tested in vitro. Cultured HepG2 cells at a density of 10,000 cells per well were transfected using lipofectin reagent with 75 nM antisense oligonucleotide. After a treatment period of approximately 24 hours, RNA was isolated from the cells and Factor 11 mRNA levels were measured by quantitative real-time PCR. Factor 11 mRNA levels were adjusted according to total RNA content, as measured by RIBOGREEN. Results are presented as percent inhibition of Factor 11, relative to untreated control cells.
The chimeric antisense oligonucleotides in Table 4 were designed as 5-10-5 MOE, 3-14-3 MOE, and 2-13-5 MOE gapmers. The first listed gapmers in Table 4 are the original gapmers (see Table 3) from which the remaining gapmers were designed via microwalk and are designated by an asterisk. The 5-10-5 gapmers are 20 nucleotides in length, wherein the central gap segment is comprised of 10 2′-deoxynucleotides and is flanked on both sides (in the 5′ and 3′ directions) by wings comprising 5 nucleotides each. The 3-14-3 gapmers are 20 nucleotides in length, wherein the central gap segment is comprised of 14 2′-deoxynucleotides and is flanked on both sides (in the 5′ and 3′ directions) by wings comprising 3 nucleotides each. The 2-13-5 gapmers are 20 nucleotides in length, wherein the central gap segment is comprised of 13 2′-deoxynucleotides. The central gap is flanked on the 5′ end with a wing comprising 2 nucleotides and on the 3′ end with a wing comprising 5 nucleotides. For each of the motifs (5-10-5, 3-14-3, and 2-13-5), each nucleotide in the 5′ wing segment and each nucleotide in the 3′ wing segment has a 2′-MOE modification. The internucleoside linkages throughout each gapmer are phosphorothioate (P=S) linkages. All cytidine residues throughout each gapmer are 5-methyl cytidines. “Target start site” indicates the 5′-most nucleotide to which the gapmer is targeted. “Target stop site” indicates the 3′-most nucleotide to which the gapmer is targeted. Each gapmer listed in Table 4 is targeted to SEQ ID NO: 1 (GENBANK Accession No. NM_000128.3).

Going from “416884 (antisense eT*eG*eT*d[5mC]*dT*dA*dG*dG*dT*d[5mC]*d[5mC]*dA*d[5mC]*dA*dT*dA*dA*eA*eT*eG) [compound 416884]” to “416809 (antisense e[5mC]*eA*eT*eA*eA*dA*dT*dG*dT*d[5mC]*dT*dT*dT*dG*dT*eT*eG*e[5mC]*eA*eA) [compound 416809]”, the “% inhibition” value rises from 69% to 86%.

First: 416811 (antisense e[5mC]*e[5mC]*eA*e[5mC]*eA*dT*dA*dA*dA*dT*dG*dT*d[5mC]*dT*dT*eT*eG*eT*eT*eG) [compound 416811]
Second: 416883 (antisense eG*eT*e[5mC]*dT*dA*dG*dG*dT*d[5mC]*d[5mC]*dA*d[5mC]*dA*dT*dA*dA*dA*eT*eG*eT) [compound 416883]
The “% inhibition” value of the first is higher: 84% for the first, 82% for the second.

Compared with “416807 (antisense eT*eA*eA*eA*eT*dG*dT*d[5mC]*dT*dT*dT*dG*dT*dT*dG*e[5mC]*eA*eA*eG*e[5mC]) [compound 416807]”, “416871 (antisense eA*eT*eA*dA*dA*dT*dG*dT*d[5mC]*dT*dT*dT*dG*dT*dT*dG*d[5mC]*eA*eA*eG) [compound 416871]” is lower in “% inhibition” value: 51% for the first, 28% for the second.

First: 416970 (antisense eT*eG*d[5mC]*d[5mC]*d[5mC]*dT*dT*d[5mC]*dA*dT*dG*dT*d[5mC]*dT*dA*eG*eG*eT*e[5mC]*e[5mC]) [compound 416970]
Second: 416814 (antisense eA*eG*eG*eT*e[5mC]*d[5mC]*dA*d[5mC]*dA*dT*dA*dA*dA*dT*dG*eT*e[5mC]*eT*eT*eT) [compound 416814]
The “% inhibition” value of the first is higher: 88% for the first, 83% for the second.

Going from “416894 (antisense eA*eT*eG*d[5mC]*d[5mC]*d[5mC]*dT*dT*d[5mC]*dA*dT*dG*dT*d[5mC]*dT*dA*dG*eG*eT*e[5mC]) [compound 416894]” to “416818 (antisense eT*eG*eT*e[5mC]*eT*dA*dG*dG*dT*d[5mC]*d[5mC]*dA*d[5mC]*dA*dT*eA*eA*eA*eT*eG) [compound 416818]”, the “% inhibition” value falls from 85% to 76%.

First: 416828 (antisense eT*eT*eA*eT*eG*d[5mC]*d[5mC]*d[5mC]*dT*dT*d[5mC]*dA*dT*dG*dT*e[5mC]*eT*eA*eG*eG) [compound 416828]
Second: 416815 (antisense eT*eA*eG*eG*eT*d[5mC]*d[5mC]*dA*d[5mC]*dA*dT*dA*dA*dA*dT*eG*eT*e[5mC]*eT*eT) [compound 416815]
The “% inhibition” value of the first is higher: 87% for the first, 63% for the second.

Compared with “416822 (antisense e[5mC]*eT*eT*e[5mC]*eA*dT*dG*dT*d[5mC]*dT*dA*dG*dG*dT*d[5mC]*e[5mC]*eA*e[5mC]*eA*eT) [compound 416822]”, “416806 (antisense eA*eA*eA*eT*eG*dT*d[5mC]*dT*dT*dT*dG*dT*dT*dG*d[5mC]*eA*eA*eG*e[5mC]*eG) [compound 416806]” is higher in “% inhibition” value: 76% for the first, 86% for the second.

For “416955 (antisense eG*eG*dT*d[5mC]*d[5mC]*dA*d[5mC]*dA*dT*dA*dA*dA*dT*dG*dT*e[5mC]*eT*eT*eT*eG) [compound 416955]”, the “% inhibition” value was 75%.

Same assay, conditions: HepG2 cells, lipofectin, gapmers targeted to nucleobases 738 to 762 of SEQ ID NO: 1

Compared with “416979 (antisense eT*e[5mC]*dA*dT*d[5mC]*d[5mC]*dG*dT*dG*d[5mC]*dA*dT*d[5mC]*dT*dT*eT*e[5mC]*eT*eT*eG) [compound 416979]”, “416976 (antisense eT*e[5mC]*d[5mC]*dG*dT*dG*d[5mC]*dA*dT*d[5mC]*dT*dT*dT*d[5mC]*dT*eT*eG*eG*e[5mC]*eA) [compound 416976]” is higher in “% inhibition” value: 63% for the first, 83% for the second.

First: 416831 (antisense eA*eT*e[5mC]*e[5mC]*eG*dT*dG*d[5mC]*dA*dT*d[5mC]*dT*dT*dT*d[5mC]*eT*eT*eG*eG*e[5mC]) [compound 416831]
Second: 416900 (antisense eA*eT*e[5mC]*d[5mC]*dG*dT*dG*d[5mC]*dA*dT*d[5mC]*dT*dT*dT*d[5mC]*dT*dT*eG*eG*e[5mC]) [compound 416900]
The “% inhibition” value of the first is higher: 91% for the first, 90% for the second.

First: 416901 (antisense e[5mC]*eA*eT*d[5mC]*d[5mC]*dG*dT*dG*d[5mC]*dA*dT*d[5mC]*dT*dT*dT*d[5mC]*dT*eT*eG*eG) [compound 416901]
Second: 416977 (antisense eA*eT*d[5mC]*d[5mC]*dG*dT*dG*d[5mC]*dA*dT*d[5mC]*dT*dT*dT*d[5mC]*eT*eT*eG*eG*e[5mC]) [compound 416977]
The “% inhibition” value of the first is lower: 65% for the first, 82% for the second.

First: 416902 (antisense eT*e[5mC]*eA*dT*d[5mC]*d[5mC]*dG*dT*dG*d[5mC]*dA*dT*d[5mC]*dT*dT*dT*d[5mC]*eT*eT*eG) [compound 416902]
Second: 416980 (antisense eG*eT*d[5mC]*dA*dT*d[5mC]*d[5mC]*dG*dT*dG*d[5mC]*dA*dT*d[5mC]*dT*eT*eT*e[5mC]*eT*eT) [compound 416980]
The “% inhibition” value of the first is lower: 46% for the first, 87% for the second.

For “416978 (antisense e[5mC]*eA*dT*d[5mC]*d[5mC]*dG*dT*dG*d[5mC]*dA*dT*d[5mC]*dT*dT*dT*e[5mC]*eT*eT*eG*eG) [compound 416978]”, the “% inhibition” value was 76%.

Same assay, conditions: HepG2 cells, lipofectin, gapmers targeted to nucleobases 1018 to 1042 of SEQ ID NO: 1

First: 416983 (antisense eA*eA*d[5mC]*d[5mC]*dG*dG*dG*dA*dT*dG*dA*dT*dG*dA*dG*eT*eG*e[5mC]*eA*eG) [compound 416983]
Second: 416836 (antisense eA*eA*e[5mC]*e[5mC]*eG*dG*dG*dA*dT*dG*dA*dT*dG*dA*dG*eT*eG*e[5mC]*eA*eG) [compound 416836]
The “% inhibition” value of the first is lower: 86% for the first, 89% for the second.

Going from “416905 (antisense eA*e[5mC]*e[5mC]*dG*dG*dG*dA*dT*dG*dA*dT*dG*dA*dG*dT*dG*d[5mC]*eA*eG*eA) [compound 416905]” to “416982 (antisense eA*e[5mC]*d[5mC]*dG*dG*dG*dA*dT*dG*dA*dT*dG*dA*dG*dT*eG*e[5mC]*eA*eG*eA) [compound 416982]”, the “% inhibition” value falls from 85% to 84%.

Same assay, conditions: HepG2 cells, lipofectin, gapmers targeted to nucleobases 1062 to 1091 of SEQ ID NO: 1

“416911 (antisense eA*eG*eA*dT*dT*d[5mC]*dT*dT*dT*dG*dG*dG*d[5mC]*d[5mC]*dA*dT*dT*e[5mC]*e[5mC]*eT) [compound 416911]” and “416844 (antisense e[5mC]*eT*eT*eT*eG*dA*dG*dA*dT*dT*d[5mC]*dT*dT*dT*dG*eG*eG*e[5mC]*e[5mC]*eA) [compound 416844]” are the same in “% inhibition” value: 90% for the first, 90% for the second.

Compared with “416846 (antisense eT*eT*e[5mC]*eT*eT*dT*dG*dA*dG*dA*dT*dT*d[5mC]*dT*dT*eT*eG*eG*eG*e[5mC]) [compound 416846]”, “416919 (antisense eT*eT*eT*d[5mC]*dT*dT*dT*dG*dA*dG*dA*dT*dT*d[5mC]*dT*dT*dT*eG*eG*eG) [compound 416919]” is lower in “% inhibition” value: 72% for the first, 27% for the second.

Same assay, conditions: HepG2 cells, lipofectin, gapmers targeted to nucleobases 1275 to 1318 of SEQ ID NO: 1

Going from “416935 (antisense eG*eG*eA*d[5mC]*dG*dG*d[5mC]*dA*dT*dT*dG*dG*dT*dG*d[5mC]*dA*d[5mC]*eA*eG*eT) [compound 416935]” to “416944 (antisense eA*e[5mC]*eT*dG*dG*d[5mC]*dA*dG*d[5mC]*dG*dG*dA*d[5mC]*dG*dG*d[5mC]*dA*eT*eT*eG) [compound 416944]”, the “% inhibition” value falls from 92% to 83%.

Going from “417009 (antisense e[5mC]*eG*dG*d[5mC]*dA*dT*dT*dG*dG*dT*dG*d[5mC]*dA*d[5mC]*dA*eG*eT*eT*eT*e[5mC]) [compound 417009]” to “416934 (antisense eG*eA*e[5mC]*dG*dG*d[5mC]*dA*dT*dT*dG*dG*dT*dG*d[5mC]*dA*d[5mC]*dA*eG*eT*eT) [compound 416934]”, the “% inhibition” value rises from 85% to 90%.

First: 417012 (antisense eG*eG*dA*d[5mC]*dG*dG*d[5mC]*dA*dT*dT*dG*dG*dT*dG*d[5mC]*eA*e[5mC]*eA*eG*eT) [compound 417012]
Second: 417014 (antisense eG*e[5mC]*dG*dG*dA*d[5mC]*dG*dG*d[5mC]*dA*dT*dT*dG*dG*dT*eG*e[5mC]*eA*e[5mC]*eA) [compound 417014]
The “% inhibition” value of the first is lower: 72% for the first, 87% for the second.

Compared with “416920 (antisense eA*e[5mC]*eA*dG*dT*dT*dT*d[5mC]*dT*dG*dG*d[5mC]*dA*dG*dG*d[5mC]*d[5mC]*eT*e[5mC]*eG) [compound 416920]”, “416927 (antisense eT*eT*eG*dG*dT*dG*d[5mC]*dA*d[5mC]*dA*dG*dT*dT*dT*d[5mC]*dT*dG*eG*e[5mC]*eA) [compound 416927]” is lower in “% inhibition” value: 88% for the first, 87% for the second.

“416930 (antisense eG*e[5mC]*eA*dT*dT*dG*dG*dT*dG*d[5mC]*dA*d[5mC]*dA*dG*dT*dT*dT*e[5mC]*eT*eG) [compound 416930]” was tested, and the “% inhibition” value was 87%.
